For experiment [1], the system named is rabbit articular chondrocytes (IL-1-induced neutral protease release). Nature of the experiment: Inhibition of IL-1-induced release of neutral protease from rabbit articular chondrocytes. Format: cell-based, rabbit (Male New Zealand White). As to conditions: Oryctolagus cuniculus, Chondrocyte, human IL-1 stimulated, 24 h. On the procedure:
The ability of the compounds of the invention to inhibit interleukin 1 is measured by the ability of the test compounds to inhibit the IL-1-induced release of neutral protease from rabbit articular chondrocytes.
Male New Zealand White rabbits are anesthetized with 50 mg/kg of ketamine (i.m.) and killed by an intracardiac injection of 3 mls. of Nembutal. The knee joints of both legs are resected and the articular surfaces are exposed. Cartilage slices are obtained using a scalpel and are placed in a tissue culture dish (100 mm diameter) containing 10 mls of Hank's balanced salt solution (HBSS). The chondrocytes within the cartilage slices are then liberated by a series of enzyme digestions. The slices are incubated for 10 minutes at 37° C. in 0.05% hyaluronidase (Sigma H-3884), rinsed with HBSS and incubated with 0.2% trypsin (Sigma T-2395) for 10 minutes at 37° C. The slices are rinsed again and incubated for 10 minutes at 37° C. with 1.2% collagenase (Sigma C-5138). The slices are then rinsed again with HBSS and resuspended in 10 ml of Ham's F-12 medium containing 10% fetal bovine calf serum (FCS) and 0.2 % collagenase and incubated overnight at 37° C. in a 5% CO2 incubator. The next day, the medium containing the digested cartilage fragments and liberated chondrocytes is transferred to a 15 ml centrifuge tube and the cells are collected by centrifugation and washed twice and resuspended in Ham's F-12 medium. The cells are then plated into 24-well tissue culture plates (2×10^5 cells/well) and incubated at 37° C. until confluent (usually 4-6 days).
The confluent chondrocytes are rinsed twice with serum-free Ham's F-12 medium and 1 ml is added to each well. Fifty μl of purified human IL 1 (100 Units/ml; Genzyme Corporation, Boston, Mass.) is then added to stimulate these cells to secrete neutral protease. To measure drug effects, the cells are treated with test compound 10 minutes prior to addition of IL-1. The standard screening dose is 10 μM. Twenty-four hours after IL-1 stimulation, supernatant fluids are collected and assayed for neutral protease activity.
The neutral protease activity of chondrocyte supernatant fluids is determined by their ability to degrade an insoluble protease substrate, azocoll (Sigma). Supernatants are treated for 10 minutes at room temperature with 350 μM p-aminophenylmurcuric acetate to activate the latent enzyme. Three hundred μl of supernatant is then mixed with 500μl of a 20 mg/ml suspension of azocoll and incubated at 37° C. for 18-24 hours with gentle rocking. The mixtures are centrifuged and the amount of substrate hydrolyzed is determined by measuring the absorbance of the supernatant at 520 nm.
Drug effects are calculated as the % change in enzyme activity (absorbance)by supernatants from drug-treated chondrocytes relative to enzyme activity of supernatants from vehicle-treated chondrocytes as follows: [formula]

Experiment [2] deals with rat limb bones (PTH-induced bone resorption). Nature of the experiment: Bone resorption assay (45Ca release from rat limb bones), PTH-induced. Format: cell-based, rat (Sprague-Dawley CD). The following applies: 48 h; for IC50: Rattus norvegicus, read-out: Inhibition of Bone Resorption, PTH-Induced (IC50). Here is the method: (§1) The ability of the compounds of the invention to modify the process of bone resorption is evaluated in the bone resorption assay measuring ^45 Ca release from rat limb bones.
(§2) Limb bone preparation. Timed pregnant Sprague-Dawley CD® rats (Charles River) are administered 100 μCi ^45 CaCl2 (NEN calcium -45 NEZ-013) in 100 μl of 0.9% saline, subcutaneously, on day 18 of gestation. The rats are sacrificed the following day by CO2 asphyxiation. The fetuses are removed and the right forelimbs excised and placed in a Petri dish containing ice cold explant medium consisting of modified BGJb -Fitton Jackson media (custom formulation, Gibco No. 78-0088) adjusted to pH 7.3 to which 10 mM TES is added. The modified BGJb media is obtained without salts, glucose or bicarbonate and is supplemented before use with 0.1 mM MgCl2, 1.25 mM CaCl2, 5.3 mM KCl, 0.7 mM MgSO4, 130 mM NaCl, 1.0 mM NaH2 PO4, 1 g/L glucose, 50 mg/L Na acetate and 100 U/ml penicillin G. The medium is sterilized by passage through a 0.2 μ M filter (Nalge). Under a dissecting microscope, the bones are gently cleaned of adherent tissue and the cartilaginous ends removed. Incubation and drug treatment. The midshafts are placed, individually, on 3×3 mm squares of filter paper (Gelman GN-6 metricel filters; […] pore size) which rest on stainless steel screens in wells of 24-well culture plates containing 0.5 mL of preincubation medium. The preincubation medium is brought to 37° C. prior to transfer of bones. The preincubation medium consists of the modified BGJb medium (with salts and glucose as above), pH 7.3, containing 29 mM NaHCO3. After incubation for 18-24 hours at 37° C. in 5% CO2, the bones are transferred on their screen/filter paper supports to new plates containing, in a total volume of 0.5 mL/well at 37° C., the test compound diluted in preincubation medium supplemented with 15% heat inactivated horse serum (Gibco No. 230-6050), pH 7.3, with a bone resorption stimulating agent (e.g. parathyroid hormone [PTH] or interleukin-1 [IL-1]). For compounds that require nonaqueous solvents, dilutions are made from the appropriate stock solution with medium. In these instances, basal and bone resorption stimulated controls exposed to an equivalent concentration of the vehicle are included. An additional group of bones that have been subjected to boiling for 1 hour (kill control) are used to establish background, non cell mediated, exchange of ^45 Ca. The right ulna and radius from each fetus are used. Both bones are subjected to the same treatment and each treatment group consists of bones from 4 or more fetuses. Treatments are randomly assigned using a preclinical statistics program (PS-ALLOC). After a 48 hour incubation at 37° C. in 5% CO2, the bones are removed from the medium and extracted in 0.5 mL of 0.1N HCl for 1 or more days. Duplicate 150 μL aliquots of the incubation medium and the bone extract are analyzed for ^45 Ca radioactivity in 5 mL of liquid scintillation cocktail.
(§3) The percentage of bone ^45 Ca released into the medium is determined as follows: [formula] Results are normally expressed as the ratio of the percent ^45 Ca release of the experimental group versus the appropriate vehicle control, or as an IC50 value.

In experiment [3] the test system is rat limb bones (IL-1 induced bone resorption). Nature of the experiment: Bone resorption assay (45Ca release from rat limb bones), IL-1 induced. Format: cell-based, rat (Sprague-Dawley CD). The following applies: 48 h; for IC50: Rattus norvegicus, read-out: Inhibition of Bone Resorption, IL-1 Induced (IC50). On the procedure: as §1, §2, §3

≈ marks a conversion by molar mass, not a printed value.

In experiment [1], `CCOC(=O)c1ccc(N2CCc3[nH]c4c(cnc5cc(Cl)ccc54)c3C2)cc1` [Example 2, 4-(3-Chloro-8,9,10,11-tetrahydro-7H-pyrido[3',4':4,5]-pyrrolo[3,2-c]quinolin-8-yl)benzoic acid ethyl ester] yielded an inhibition at 10 µM of 38%. Also, in experiment [2], the “Inhibition of Bone Resorption, PTH-Induced (activity in words)” value is given as “Active” and the IC50 worked out at 0.98 µg/mL (≈ 2.41 µM). In experiment [3], the “Inhibition of Bone Resorption, IL-1 Induced (activity in words)” value is listed as “Active” and the IC50 turned out to be 3.39 µg/mL (≈ 8.35 µM).
`O=C(c1ccccc1)N1CCc2[nH]c3c(cnc4cc(Cl)ccc43)c2C1` [Example 6, 8-Benzoyl-3-Chloro-8,9,10,11-tetrahydro-7H-pyrido[3',4':4,5]pyrrolo[3,2-c]quinoline] yielded an inhibition at 10 µM in experiment [1] of 57%. Besides, the “Inhibition of Bone Resorption, PTH-Induced (activity in words)” value in experiment [2] was “Active at 10 μg/ml”. In experiment [3], the “Inhibition of Bone Resorption, IL-1 Induced (activity in words)” value was “Active at 5 μg/ml”.
The molecule `O=C(c1ccncc1)N1CCc2[nH]c3c(cnc4cc(Cl)ccc43)c2C1` [Example 8, 3-Chloro-8,9,10,11-tetrahydro-8-(4-pyridinylcarbonyl)-7H-pyrido[3',4':4,5]pyrrolo[3,2-c]quinoline] yielded an inhibition at 10 µM in experiment [1] of 35%. Also, the “Inhibition of Bone Resorption, PTH-Induced (activity in words)” value in experiment [2] is reported as “Active at 10 μg/ml”. Further, in experiment [3], the “Inhibition of Bone Resorption, IL-1 Induced (activity in words)” value is “Active” and the IC50 turned out to be 1.96 µg/mL (≈ 5.4 µM).
With `O=C(c1ccco1)N1CCc2[nH]c3c(cnc4cc(Cl)ccc43)c2C1` [Example 9, 3-Chloro-8-(2-furanylcarbonyl)-8,9,10,11-tetrahydro-7H-pyrido[3',4':4,5]pyrrolo[3,2-c]quinoline], the inhibition at 10 µM in experiment [1] was found to be 36%. Also, in experiment [2], the “Inhibition of Bone Resorption, PTH-Induced (activity in words)” value was “Active” and the IC50 was determined as 2.88 µg/mL (≈ 8.19 µM). For the same molecule, in experiment [3], the “Inhibition of Bone Resorption, IL-1 Induced (activity in words)” value is on record as “Active” and the IC50 came out at 0.307 µg/mL (≈ 0.873 µM).
As for `O=S(=O)(c1cccs1)N1CCc2[nH]c3c(cnc4cc(Cl)ccc43)c2C1` [Example 11, 3-Chloro-8,9,10,11-tetrahydro-8-(2-thienylsulfonyl)-7H-pyrido [3',4':4,5]pyrrolo[3,2-c]quinoline], the inhibition at 1 µM in experiment [1] (dose 1 μM) is < 20%. In experiment [2], the “Inhibition of Bone Resorption, PTH-Induced (activity in words)” value is reported as “Active” and the IC50 was found to be 0.144 µg/mL (≈ 0.357 µM). Besides, in experiment [3], the “Inhibition of Bone Resorption, IL-1 Induced (activity in words)” value is recorded as “Active” and the IC50 was found to be 0.018 µg/mL (≈ 0.0446 µM).
As for `O=C(Oc1ccccc1)N1CCc2[nH]c3c(cnc4cc(Cl)ccc43)c2C1` [Example 12, 3-Chloro-7,9,10,11-tetrahydro-8H-pyrido[3',4':4,5]pyrrolo-[3,2-c]quinoline-8-carboxylic Acid Phenyl Ester], the inhibition at 10 µM in experiment [1] is < 20%. In experiment [2], the “Inhibition of Bone Resorption, PTH-Induced (activity in words)” value is given as “Active” and the 50% inhibitory concentration (IC50) turned out to be 0.274 µg/mL (≈ 0.725 µM). Moreover, in experiment [3], the “Inhibition of Bone Resorption, IL-1 Induced (activity in words)” value is listed as “Active” and the IC50 is 0.76 µg/mL (≈ 2.01 µM).

The inhibition is the relative decrease from the control value, in per cent. As a reminder, the IC50 is the concentration needed to halve the response being measured.

For the origin of these results see US5281608A, “Substituted tetrahydropyrido[3',4':4,5]-pyrrolo[3,2-c]quinolines” (American Home Products Corporation, priority 1992, dated 1994).
